Where “and” joins values, the source holds several entries; their conditions need not be identical. Equal values may be shown once. Entries after “also recorded” stand apart in the source; their conditions may differ. Read-outs that look alike come from different tables or passages of the source. Marks after values point to notes of the source that are not given here.
Legend:
[1] = ABTS radical-scavenging activity; assay type: biochemical; conditions: compounds tested at 250 µM, mean ± standard deviation, n = 3
Experimental: The ABTS assay used herein was based on the method of Re et al. with slight modifications. Substances at concentrations of 250 µM, BHT or BHA were added to dilute ABTS solution and the absorbance at […] was measured. The antioxidant activity was calculated using the equation: % inhibition = 100 × (1 − sample abs/control abs).

[2] = DPPH radical-scavenging activity; assay type: biochemical; conditions: compounds tested at 250 µM, mean ± standard deviation, n = 3
Experimental: The measurement of the scavenger activity of DPPH• was carried out according to the method of Molineux with modifications. Substances at 250 µM were added, at an equal volume, to the methanol solution of DPPH• ([…]). After 15 min at room temperature, the absorbance was recorded at 517 nm (sample abs). The experiment was repeated three times. BHT, BHA were used as controls. Values denote percentage of DPPH free radical inhibition. The antioxidant activity was calculated using the equation: % inhibition = 100 × (1 − sample abs/control abs).

Brine shrimp assay = experiment: Brine shrimp assay; parameters: species or system Artemia franciscana; conditions: Artemia franciscana (brine shrimp), in vivo, read-out: Toxicity Brine shrimp (Artemia franciscana) (LC50)
Artemia franciscana = experiment: Brine shrimp assay; conditions: in vivo
[3] = system: Mouse embryonic fibroblast cells (3T3L1 line); experiment: Cell viability assay (alamar blue); assay type: cell-based; conditions: ‡ >50 µg/mL, read-out: Toxicity Mouse embryonic fibroblast cells (3T3L1 line) (IC50)
Experimental: The cytotoxicity of 4-NC and derivatives of 4-NC 1–8 to mouse embryonic fibroblast line 3T3L1 was evaluated using alamar blue to measure cell survival/proliferation. The substances at different concentrations (12.5, 25 and 50 µM) were separately incubated with cells and the number of viable cells was counted after 24, 48 and 72 h. […] O,O-Dibenzyl 4-NC (1) was not active (i.e. not toxic to A. franciscana) in the brine shrimp assay (Table 1).
3T3-L1 cells (mouse embryonic fibroblasts) were obtained from the Cell Bank of Rio de Janeiro, Brazil and were maintained in Dulbecco’s Modified Eagle Medium (DMEM) which was supplemented with 10% fetal bovine serum (FBS), penicillin (100 U/mL) and streptomycin (100 U/mL). The cells were incubated at 37 °C in a humidified atmosphere containing 5% of CO2.
The cytotoxicity of 4-NC and its semi-synthetic derivatives 1–8 to the 3T3L1 mouse embryonic fibroblast cell line fibroblasts was determined by the alamar blue method as described by Nakayama and co-workers. The alamar blue assay is a colorimetric assay involving the cellular reduction of resazurin to resorufin. Briefly, adherent cells (5 × 10^3 cells/well) were grown in 96-well tissue culture plates and exposed to substances (50, 25 and 12.5 μM) for 24, 48 and 72 h. After incubation, the alamar blue solution (10 µL of 0.4% alamar blue (resazurin) in PBS) was added and the cells were incubated for 2 h at 37 °C. Fluorescence was measured (excitation at 545 nm and emission at 595 nm) and expressed as a percentage of the cells in the control after background fluorescence was subtracted. The assays were performed in triplicate.

tumor cell lines = conditions: cited from earlier work
[4] = system: 3T3L1 mouse embryonic fibroblast cell line; experiment: Cellular antioxidant activity (oxidation of DCFH-DA); assay type: cell-based; parameters: inhibition of the oxidation of DCFH-DA in 3T3L1 cells: concentration or dose not given beside the values; conditions: for loss of antioxidant activity after storage: DMSO solution stored at −20 °C for 30 days; for inhibition of the oxidation of DCFH-DA in 3T3L1 cells: over the observation period of 60 min
Experimental: These tests evaluate the reducing effect of a given substance on the radical species formed in situ during these assays leading to a decrease in color versus controls that is measured spectrophotometrically. […] Thus, at a concentration of 250 µM, 4-NC inhibited DPPH• and ABTS+• by 97% and 95%, respectively. Mono-O-substituted 4-NC derivatives 2–5 inhibited ABTS+• by 89–93%. […] The antioxidant activity was also evaluated in mouse embryonic 3T3L1 fibroblasts. In this assay DCFH-DA (2',7'-dichlorofluorescein diacetate) is hydrolyzed by intracellular esterases and then oxidized by reactive oxygen species (ROS) to the fluorescent compound 2'-7'-DCF. An active antioxidant substance can inhibit the transformation of fatty acids to fatty acid hydroperoxides in the cell membranes and thereby inhibit the oxidation of DCFH-DA.
The antioxidant activity of 4-NC and semi-synthetic derivatives of 4-NC was evaluated on the 1st and 30th days after dissolving the substances in DMSO at a concentration of 10 mM and storage in a freezer at −20 °C. This experiment permitted the evaluation of the relative stability of the antioxidant activity of 4-NC, derivatives of 4-NC, BHT and BHA. Thus, cellular antioxidants were evaluated using the mouse embryonic fibroblast 3T3L1 cell line. […] The presence of mono-O or di-O,O substituent groups in the 4-NC derivatives can confer stability relative to 4-NC. Such chemical stability is highly desirable when contemplating the use of such substances in cosmetic and pharmaceutical formulations and foods. Here, 4-NC dissolved in DMSO lost more than 80% of its antioxidant activity after 30 days in the freezer.
Intracellular ROS production was detected using the non-fluorescent cell permeating compound, 2'7'-dichlorofluorescein diacetate (DCF-DA), as described by Wolfe and Liu. DCF-DA is hydrolyzed by intracellular esterases and then oxidized by hydroperoxides into the fluorescent compound, 2'-7'-DCF. 3T3-L1 cells were seeded at a density of 6 × 10^4 cells/well in a 96-well microplate in 100 μL of growth medium. 24 h after seeding, the growth medium was removed and the wells were washed with PBS. Then, a 10 μM solution of DCFH-DA dissolved in Hank’s buffer (100 μL) was added to wells and incubated for 30 min at 37 °C and 5% CO2. The cells were washed first with PBS (100 μL) then EEP (100 µL) and samples having different concentrations were added. The fluorescence was immediately measured at an excitation wavelength of 485 nm and emission wavelength of 520 nm over 60 min at 5 min intervals. Controls with/without DCFH-DA were prepared and subjected to analogous procedures. Quercetin, BHA and BHT were used as positive controls of antioxidant activity.

[5] = system: melanoma cell lines (SK-Mel-28, 103 and 147); parameters: method as in PMID 19059332; conditions: read-out: IC50 in vitro growth of melanoma cell lines; cited from earlier work
normal fibroblast cells = system: normal fibroblast cells; parameters: method as in PMID 19059332; conditions: cited from earlier work
Plasmodium falciparum = system: Plasmodium falciparum; parameters: method as in PMID 17568942; conditions: cited from earlier work
Plasmodium berghei = conditions: cited from earlier work
rat brain homogenates = system: rat brain homogenates; parameters: method as in ref 8 = [8]; 8. De Freitas P.C.D. Atividade Antioxidante de Espécies Medicinais da Família Piperaceae: Pothomorphe umbellata (L.) Miq. e Piper regnelli (Miq.) C. DC Ph.D. Thesis University of São Paulo (USP) São P; conditions: inhibition of spontaneous lipoperoxidation; cited from earlier work
KB tumor cells = system: KB tumor cells; parameters: method as in PMID 10364848; conditions: cited from earlier work
human topoisomerase I = system: human topoisomerase I; parameters: method as in PMID 10364848; conditions: cited from earlier work
[6] = system: colon tumor cells (HCT-8 strain), central nervous system tumor cells (SF295 strain) and leukemia cells (HL-60 strain); parameters: method as in PMID 19084293; conditions: HCT-8, SF295 and HL-60; read-out: cytotoxicity IC50; cited from earlier work
[7] = system: leukemia cells (HL-60 strain); parameters: method as in PMID 19084293; conditions: read-out: IC50 growth of leukemia cells; cited from earlier work
[8] = † >500 µg/mL, 4 and 5 tested separately
[9] = Mus musculus, 3T3-L1, alamar blue

Compound	ABTS (%) percentage of inhibition [1]	DPPH• (%) percentage of inhibition [2]	LC50 (Brine shrimp assay; [8]) [µM]	cytotoxic activity against Artemia franciscana in the brine shrimp assay (Artemia franciscana)	IC50 [3, 9] [µM]	other results
C=CC(C)(CC/C=C(\C)CCC=C(C)C)c1ccc(OCc2ccccc2)c(OCc2ccccc2)c1 (centres unmarked) [Compound 1, O,O-Dibenzyl 4-NC]	7.97 ± 2.72 ^b %	4.35 ± 0.71 ^c %	> 1000	not active	> 101	activity against tumor cells (tumor cell lines): inactive
4-nerolidylcatechol [Compound 4-NC]						ABTS (%) percentage of inhibition ([1]; 250 µM): 95% and 94.82 ± 0.22 ^a %; DPPH• (%) percentage of inhibition ([2]; 250 µM): 97% and 96.53 ± 0.50 ^a %; IC50 ([3]; alamar blue): 31.4 µM and 31.5 µM; loss of antioxidant activity after storage ([4]; 3T3L1 cells): more than 80%; inhibition of the oxidation of DCFH-DA in 3T3L1 cells [4]: ≥ 20%; IC50 [5]: 20 to 40 µM; IC50 (normal fibroblast cells): 50 µM; in vitro activity against Plasmodium falciparum (Plasmodium falciparum): high in vitro activity; in vivo activity in Plasmodium berghei-infected mice (Plasmodium berghei): low in vivo activity; also recorded: little activity; in vitro antioxidant activity relative to α-tocopherol (vitamin E) (rat brain homogenates): approximately 20 times; toxicity in vitro to KB tumor cells (KB tumor cells): toxic; inhibition of human topoisomerase I (human topoisomerase I): inhibits; IC50 (tumor cell lines): 19.7 to 38.8 µM
C=CC(C)(CC/C=C(\C)CCC=C(C)C)c1ccc(OC(=O)c2ccccc2)c(OC(=O)c2ccccc2)c1 (centres unmarked) [Compound 6, O,O-dibenzoyl 4-NC]	8.83 ± 0.23 ^b %	3.46 ± 0.63 ^c %		moderately toxic	> 95.8	LC50 (Brine shrimp assay): 69 µM; inhibition of the oxidation of DCFH-DA in 3T3L1 cells [4]: ≥ 20%; activity against tumor cells (tumor cell lines): inactive
C=CC(C)(CC/C=C(\C)CCC=C(C)C)c1ccc(O)c(OC)c1 (centres unmarked) [Compound 5, 2O-monomethyl 4-NC derivative]			1200	weak cytotoxic activity		IC50 [6]: 43.9 to 63.1 µM
C=CC(C)(CCC1OC1(C)CCC1OC1(C)C)c1ccc(OC(C)=O)c(OC(C)=O)c1 (centres unmarked) [Compound 8]	0.31 ± 0.01 ^c %	7.39 ± 3.66 ^c %			> 116	inhibition of the oxidation of DCFH-DA in 3T3L1 cells [4]: ≥ 20%
C=CC(C)(CC/C=C(\C)CCC=C(C)C)c1ccc(OC)c(O)c1 (centres unmarked) [Compound 4, 1O-monomethyl derivative of 4-NC]			600	weak cytotoxic activity		IC50 [7]: 57.4 µM
C=CC(C)(CC/C=C(\C)CCC=C(C)C)c1ccc(OCc2ccccc2)c(O)c1 (centres unmarked) [Compound 2, 1-O-benzyl 4-NC]	91.12 ± 0.68 ^a %	44.20 ± 0.01 ^b %	1000	weak cytotoxic activity		activity against tumor cells (tumor cell lines): inactive
Cc1cc(C(C)(C)C)c(O)c(C(C)(C)C)c1 [BHT, butylated hydroxytoluene, reference compound]	93.13 ± 0.18 ^a %					DPPH• (%) percentage of inhibition ([2]; 250 µM): 17% and 16.84 ± 0.81 ^c %; increase of antioxidant activity after storage ([4]; DMSO solution, 30 days of storage in the freezer, 3T3L1 cells): approximately 100%
O=c1c(O)c(-c2ccc(O)c(O)c2)oc2cc(O)cc(O)c12 [Quercetin, quercetin, reference compound]	99.7 ± 0.02 ^a %	91.4 ± 0.12 ^a %				loss of antioxidant activity after storage ([4]; 3T3L1 cells): ≥ 70%
COc1ccc(O)c(C(C)(C)C)c1 [BHA, butylated hydroxyanisole, reference compound]	94.71 ± 0.47 ^a %					DPPH• (%) percentage of inhibition ([2]; 250 µM): 98% and 97.97 ± 0.10 ^a %; loss of antioxidant activity after storage ([4]; 3T3L1 cells): ≥ 70%
C=CC(C)(CC/C=C(\C)CCC=C(C)C)c1ccc(O)c(OCc2ccccc2)c1 (centres unmarked) [Compound 3, 2O-monobenzyl derivative of 4-NC]	93.31 ± 0.30 ^a %	48.09 ± 1.33 ^b %	> 1200	weak cytotoxic activity	> 124	IC50 (tumor cell lines; read-out: cytotoxicity IC50 against four tumor cell lines, four tumor cell lines): 25.1 to 41.7 µM
